Data set [1] is described as follows: Acute toxicity of SODF, intragastric administration to mice. Type of data set: in vivo. Particulars: 3000 mg/kg. The protocol: (§1) Evaluation of SODF acute toxicity and tolerated toxic and lethal doses for single intragastric administration to male and female mice and rats. Evaluation was carried out for 24 male rats weighing 235-260 g and […] female rats weighing 225-250 g as well as for 24 male mice weighing 21-25 g and 24 female mice weighing 20-24 g. All in all, there were 8 groups in each of the four categories. SODF was administered in the largest possible volume 10 ml/kg three times a day at a 40-minute interval. Prior to administration, SODFs were dispersed, then ground in a mortar and mixed with a 0.5% Tween 80 solution to obtain a suspension suitable for intragastric administration to animals at a dose of ≤10 ml/kg. Solutions for administration were always prepared on the day of administration. Prepared SODF suspensions were administered at the same time every day (within a deviation of maximum 4 hours). […] On each of the 14 days following SODF administration, the weights of rats and mice were recorded and the animals were examined to detect any cases of death or abnormal condition. In this way, parameters of acute SODF toxicity were established.

Data set [2] in a line: Acute toxicity of SODF, intragastric administration to rats. It is filed as in vivo. The note with it: 3000 mg/kg. The protocol: as §1
The test system of data set [3] is NL4.3 HIV strain (NL4.3-GFP). The data set is described as follows: Anti-HIV activity in SupT1 cells infected with NL4.3-GFP. It is filed as cell-based. Particulars: read after 45 hours. The protocol:
(§2) The anti-HIV activity of active ingredients (test compounds) was evaluated using SupT1 cells. The cells were infected with the NL4.3 HIV strain carrying a gene of green fluorescence protein (NL4.3-GFP). The virus preparation was obtained by transfection of 293T cells of proviral DNA. Forty-eight hours after the transfection, the preparation was frozen and stored until use. To enhance the infection efficiency, the suspension of SupT1 cells was precipitated from the infection mixture by centrifugation. Test compounds were added to the cells immediately before virus addition. After a 2-hour incubation, the infection mixture was replaced by fresh culture medium with test compounds. The infection efficiency was evaluated following 45 hours by counting the percent of fluorescing cells against noninfected cell cultures. The cytotoxicity of test compounds was evaluated simultaneously at the same, but not infected, SupT1 cellular line using the XTT reagent. To this end, serial ten-fold dilutions of test compounds were prepared (starting with 10 μM to evaluate viral activity or with 100 μM to evaluate cytotoxicity). […] As a result, the values of activity EC50, cytotoxicity CC50, and selectivity index SI were calculated. The test quality was evaluated using the following controls: signal to background ratio, integrase inhibitor raltegravir (1 μM), and reproducibility of the test. […]

Data set [4] deals with AD38 cell line. The data set is described as follows: Cytotoxicity in AD38 cells (ATPLite). Type of data set: cell-based, human. Particulars: 3 days. The protocol: (§3) Anti-HBV activity of tenofovir of formulas 4f, 4h, 4k, 4m (test compounds) was evaluated in the cell line of human hepatoma AD38 carrying integrated HBV DNA with terminal repeats [Lander S, et. al, Antimicrobial Agents and Chemotherapy, 1997, pp. 1715-1720]. The cell line was made available by Dr. C. Seeger, Fox Chase Cancer Center, Philadelphia, Pa.). Simultaneously, cytotoxicity was evaluated.
The cytotoxicity of test compounds was determined simultaneously on the same AD38 cell line. The cells were cultivated in a 96-well black plate with a transparent bottom (10^4 cells/well) in complete DMEM/F12 medium containing 2 mM of L-glutamine (Thermo Scientific, Cat #11320033), 10% fetal bovine serum (ThermoFisher Scientific, Cat#), and 1% antibiotic-antimycotic solution (ThermoFisher Scientific, Cat#15240096). The AD38 cells were seeded in 96-well plates (7.5×10^3 cells/well in 100 μl of medium). The solutions of test compounds in DMEM were prepared immediately before use. […] The number of living cells was counted using the ATPLite kit (Perkin Elmer, Boston, USA) in compliance with manufacturer's instructions. […] After additional 5-minute incubation on a rocking platform at 600 rev/min, the plates were kept in dark for 10 minutes, and the luminescence was read using TopCount NXT (Packard, Perkin Elmer). […] CC50 values (Table 2) were then determined using XLfit 4 software.

Data set [5] concerns HBV. The data set is described as follows: Anti-HBV activity in AD38 cells (secreted HBV DNA, qPCR). The note with it: 4-day incubation. It is filed as cell-based. The protocol: as §3
The cells were cultivated in complete DMEM/F12 culture medium containing 2 mM of L-glutamine (Thermo Scientific, Cat #11320033), 10% fetal bovine serum (ThermoFisher Scientific, Cat#), 1% antibiotic-antimycotic solution (ThermoFisher Scientific, Cat#15240096), and 0.3 μg/ml of tetracycline (Sigma, Cat # T7660-5G). The cells were seeded into 96-well Corning Biocoat plates (Corning, Cat # 356407) in 225 μl of complete medium without tetracycline, 20 000 cells per well. The test compounds were dissolved first in DMSO (Sigma cat. D2650), then in DMEM/F12 medium, and 9 dilutions in log 3 steps (225 μl) were added to the cells. The final concentrations of test compounds varied from […] to 1 nM. […]
The technique of real-time quantitative polymerase chain reaction (RT-qPCR) was applied using the CFX96TM Real-Time System instrument (Bio-Rad, Hercules, Calif.) and polymerase AmpliTaq Gold® DNA Polymerase (Applied Biosystems®). […]
The fluorescent signal was read at the end of each cycle. […]
A general note: Quantitative PCR measures a nucleic acid by following its amplification.

In data set [6] the test system is SupT1 cells. As to the kind of experiment: Cytotoxicity in non-infected SupT1 cells (XTT reagent). It is filed as cell-based. The protocol:
as §2
For orientation: Tetrazolium assays rely on reduction of a dye to a coloured formazan, in cell work by metabolically active cells.

Consider two compounds from patent publication US20200206248A1, “COMBINED MEDICINAL PREPARATION FOR TREATING VIRAL INFECTIONS” (ALLA CHEM, LLC, priority 2017, published 2020).

For the compound `CCC(=O)[N-]S(=O)(=O)c1ccc(NC(=O)Cc2ccc(Br)c(Oc3cc(Cl)cc(C#N)c3)c2F)c(Cl)c1.[Na+]` [Compound 1a, elsulfavirine sodium], the body weight gain entry in data set [1] and in data set [2] was “did not affect body weight gain” throughout.

By EC50 is commonly meant the concentration that produces a half-maximal response. A higher EC50 goes with weaker potency. One may read the CC50 as the concentration at which the toxic effect on the cells reaches its halfway point. As for `CC(C)OC(=O)[C@H](C)N[P@](=O)(CO[C@H](C)Cn1cnc2c(N)ncnc21)Oc1ccccc1` [Compound 4f, tenofovir alafenamide hemifumarate], the EC50 in data set [3] is 43 nM; in data set [5] it was 0.3 to 0.7 nM. Further, the CC50 was 3000 nM in data set [4] and above 100000 nM in data set [6].
